From patent US9701689B2, “Substituted pyridines and pyridazines as CCR10 receptor inhibitors” (KYOWA HAKKO KIRIN CO., LTD., priority 2012, dated 2017)

Assays:
[1] = system: Dinitrofluorobenzene-induced Auricle Edema Reaction in Mouse; assay: Suppressive action on dinitrofluorobenzene-induced auricle edema reaction in mouse; format: in vivo; conditions: BALB/c mice
Experimental: [Experimental Example 2] Suppressive Action on Dinitrofluorobenzene-induced Auricle Edema Reaction in Mouse
BALB/c mice (female, supplied by CHARLES RIVER LABORATORIES JAPAN, INC.) were purchased at the age of 5 weeks. After quarantine and acclimation, mice showing smooth body weight increase and free of abnormality in appearance were used and the test was started at the age of 7 weeks. The mice were housed in a breeding room at room temperature 19-25° C., humidity 30-70%, 12 hr lighting per day (7 a.m.-7 p.m.) with 3 mice in each plastic gauge, and bred on with free ingestion of a commercially available solid feed and water.
Two days before the test, the abdomen of the BALB/c mice was shaved, and the mice were immunized by applying 100 μL of a solution {concentration 0.5% [weight (w)/volume (v) %]} of dinitrofluorobenzene (manufactured by Nacalai Tesque) in acetone (manufactured by Wako Pure Chemical Industries, Ltd.) to the shaved part. The reaction was induced by applying dinitrofluorobenzene-acetone solution [concentration 0.2% (w/v %)] to the front and the back of auricle (10 μL to each, total 20 μL) on day 5 after the immunization. A test compound dissolved in acetone at concentration of 0.1% or 1% (w/v %) was administered by applying same to the front and the back of auricle (10 μL to each, total 20 μL) 1 hr before and 3 hr after induction of the reaction. After application, the applied part was air-dried with a dryer.
The group applying administered with the test compound was taken as a test compound administration group, and the group applying administered with acetone as a solvent instead of the test compound was taken as a solvent administration group. Also, the group free of immunization and reaction induction but applying administered with acetone instead of the test compound was taken as a normal group. The thickness of auricle was measured using a dial thickness gauge (G-1A manufactured by OZAKI MFG. CO., LTD.) immediately before and 24 hr after induction of the reaction, and the difference thereof was taken as auricle edema. The suppression rate (%) of auricle edema was calculated according to the following formula.

human CCR10 = molecular target: T1, human CCR10 (Homo sapiens, UniProt P46092); assay: CCR10 antagonistic effect: calcium assay of human CCR10 (CTACK-induced increase of intracellular calcium in hCCR10G16 cells); format: cell-based; conditions: at a concentration of not more than 1000 nmol/L; human CCR10-expressing hCCR10G16 cells, 300 nmol/L CTACK added; read-out: inhibition of increase in the calcium ion concentration
T1 construct: expressed in transfected cells; host or cells: KJMGER8 cells (Namalwa cell-derived line), beta-estradiol-induced; hCCR10G16 cells
T1 sequence (P46092 1-362): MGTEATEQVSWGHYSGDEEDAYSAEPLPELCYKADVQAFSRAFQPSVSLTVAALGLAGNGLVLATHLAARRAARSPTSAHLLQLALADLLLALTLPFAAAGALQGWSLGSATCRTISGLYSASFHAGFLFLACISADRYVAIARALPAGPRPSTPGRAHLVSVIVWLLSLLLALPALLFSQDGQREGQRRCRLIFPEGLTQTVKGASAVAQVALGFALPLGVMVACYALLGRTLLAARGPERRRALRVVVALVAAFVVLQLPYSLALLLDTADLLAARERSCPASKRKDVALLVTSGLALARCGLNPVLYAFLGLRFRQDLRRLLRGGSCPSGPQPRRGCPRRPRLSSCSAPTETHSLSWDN
Outline: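 Inhibition of CTACK-evoked calcium flux (max minus min Fluo-3 fluorescence over ~5 min, FDSS) was calculated against control in β-estradiol-induced human CCR10/Gα16 KJMGER8 cells, after 30 min compound preincubation at 37 °C; CTACK added from a 300 nmol/L solution.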

For Cc1cc(F)ccc1Nc1cc(S(=O)(=O)Nc2ccon2)ncc1C(=O)N1CCC(c2ccc(F)cc2)CC1 [Compound 11, 4-(4-fluoro-2-methylphenylamino)-5-[4-(4-fluorophenyl)piperidine-1-carbonyl]-N-(isoxazol-3-yl)pyridine-2-sulfonamide], the “suppressive action on auricle edema response (in words)” value ([1]; topical application in acetone, summary of Table 28) was “showed a suppressive action on auricle edema response”, the inhibition in vivo at 1 % ([1]; Mus musculus, topical, test compound concentration 1% (w/v) in acetone, applied to auricle 1 hr before and 3 hr after induction, measured 24 hr after induction, read-out: auricle edema suppression rate (%)) was 32% and the inhibition at up to 1 µM (human CCR10) was ≥ 50%.

Cc1ccc(C(F)(F)F)cc1Nc1c(C(=O)N2CCC(c3ccc(F)cc3)CC2)cnc(S(N)(=O)=O)c1Cl [Compound 311, 3-chloro-5-[4-(4-fluorophenyl)piperidine-1-carbonyl]-4-[2-methyl-5-(trifluoromethyl)phenylamino]pyridine-2-sulfonamide] was tested, and the inhibition at up to 1 µM (human CCR10) was ≥ 50%.

For NS(=O)(=O)c1ncc(C(=O)N2CCC(c3ccc(F)cc3)CC2)c(Nc2ccc(OC(F)F)cc2)c1Cl [Compound 312, 3-chloro-4-[4-(difluoromethoxy)phenylamino]-5-[4-(4-fluorophenyl)piperidine-1-carbonyl]pyridine-2-sulfonamide], the inhibition at up to 1 µM (human CCR10) was ≥ 50%.

For COC1(c2ccc(F)cc2)CCN(C(=O)c2cnc(S(N)(=O)=O)c(Cl)c2Nc2cc(Cl)ccc2C)CC1 [Compound 313, 3-chloro-4-(5-chloro-2-methylphenylamino)-5-[4-(4-fluorophenyl)-4-methoxypiperidine-1-carbonyl]pyridine-2-sulfonamide], the inhibition at up to 1 µM (human CCR10) was ≥ 50%.

With Cc1ccc(Cl)cc1Nc1c(C(=O)N2CC(c3ccc(F)cc3)C2)cnc(S(N)(=O)=O)c1Cl [Compound 314, 3-chloro-4-(5-chloro-2-methylphenylamino)-5-[3-(4-fluorophenyl)azetidine-1-carbonyl]pyridine-2-sulfonamide] the inhibition at up to 1 µM (human CCR10) was ≥ 50%.

For Cc1cc(NS(=O)(=O)c2ncc(C(=O)N3CCC(c4ccc(F)cc4)CC3)c(Nc3cc(F)ccc3F)c2C)sn1 [Compound 315, 4-(2,5-difluorophenylamino)-5-[4-(4-fluorophenyl)piperidine-1-carbonyl]-3-methyl-N-(3-methylisothiazol-5-yl)pyridine-2-sulfonamide], the inhibition at up to 1 µM (human CCR10) was ≥ 50%.

For Cc1cc(NS(=O)(=O)c2ncc(C(=O)N3CCC(c4ccc(F)cc4)CC3)c(Nc3ccc(F)cc3F)c2C)sn1 [Compound 316, 4-(2,4-difluorophenylamino)-5-[4-(4-fluorophenyl)piperidine-1-carbonyl]-3-methyl-N-(3-methylisothiazol-5-yl)pyridine-2-sulfonamide], the inhibition at up to 1 µM (human CCR10) was ≥ 50%.

In the case of Cc1ccccc1Nc1c(C(=O)N2CCC(c3ccc(F)cc3)CC2)cnc(S(=O)(=O)Nc2ccn(C)n2)c1Cl [Compound 317, 3-chloro-5-[4-(4-fluorophenyl)piperidine-1-carbonyl]-N-(1-methyl-1H-pyrazol-3-yl)-4-(o-tolylamino)pyridine-2-sulfonamide], the inhibition at up to 1 µM (human CCR10) is reported as ≥ 50%.

Cc1cc([N+](=O)[O-])ccc1Nc1c(C(=O)N2CCC(c3ccc(F)cc3)CC2)cnc(S(N)(=O)=O)c1Cl [Compound 318, 3-chloro-5-[4-(4-fluorophenyl)piperidine-1-carbonyl]-4-(2-methyl-4-nitrophenylamino)pyridine-2-sulfonamide] was tested, and the inhibition at up to 1 µM (human CCR10) was ≥ 50%.

For NS(=O)(=O)c1ncc(C(=O)N2CCC(c3ccc(F)cc3)CC2)c(Nc2cccc(Br)c2)c1Cl [Compound 319, 4-(3-bromophenylamino)-3-chloro-5-[4-(4-fluorophenyl)piperidine-1-carbonyl]pyridine-2-sulfonamide], the inhibition at up to 1 µM (human CCR10) was ≥ 50%.

For Cc1cc(C#N)c(Nc2c(C(=O)N3CCC(c4ccc(F)cc4)CC3)cnc(S(N)(=O)=O)c2Cl)cc1C [Compound 320, 3-chloro-4-(2-cyano-4,5-dimethylphenylamino)-5-[4-(4-fluorophenyl)piperidine-1-carbonyl]pyridine-2-sulfonamide], the inhibition at up to 1 µM (human CCR10) was ≥ 50%.

With COc1ccc(C#N)c(Nc2c(C(=O)N3CCC(c4ccc(F)cc4)CC3)cnc(S(N)(=O)=O)c2Cl)c1 [Compound 321, 3-chloro-4-(2-cyano-5-methoxyphenylamino)-5-[4-(4-fluorophenyl)piperidine-1-carbonyl]pyridine-2-sulfonamide] the inhibition at up to 1 µM (human CCR10) was ≥ 50%.

In the case of N#Cc1ccc([N+](=O)[O-])cc1Nc1c(C(=O)N2CCC(c3ccc(F)cc3)CC2)cnc(S(N)(=O)=O)c1Cl [Compound 322, 3-chloro-4-(2-cyano-5-nitrophenylamino)-5-[4-(4-fluorophenyl)piperidine-1-carbonyl]pyridine-2-sulfonamide], the inhibition at up to 1 µM (human CCR10) is reported as ≥ 50%.

With Cc1ccc(Cl)cc1Nc1c(C(=O)N2CCC3(CC2)COc2ccccc23)cnc(S(N)(=O)=O)c1Cl [Compound 323, 3-chloro-4-(5-chloro-2-methylphenylamino)-5-(2H-spiro[benzofuran-3,4′-piperidin]-1′-ylcarbonyl)pyridine-2-sulfonamide] the inhibition at up to 1 µM (human CCR10) was ≥ 50%.

For COc1ccc(Cl)c(Nc2c(C(=O)N3CCC(c4ccc(F)cc4)CC3)cnc(S(N)(=O)=O)c2Cl)c1 [Compound 324, 3-chloro-4-(2-chloro-5-methoxyphenylamino)-5-[4-(4-fluorophenyl)piperidine-1-carbonyl]pyridine-2-sulfonamide], the inhibition at up to 1 µM (human CCR10) was ≥ 50%.

For NS(=O)(=O)c1ncc(C(=O)N2CCC(c3ccc(F)cc3)CC2)c(Nc2cc(F)ccc2Cl)c1Cl [Compound 325, 3-chloro-4-(2-chloro-5-fluorophenylamino)-5-[4-(4-fluorophenyl)piperidine-1-carbonyl]pyridine-2-sulfonamide], the inhibition at up to 1 µM (human CCR10) was ≥ 50%.

In the case of Cc1cnc(C)c(Nc2c(C(=O)N3CCC(c4ccc(F)cc4)CC3)cnc(S(N)(=O)=O)c2Cl)c1 [Compound 326, 3-chloro-4-(2,5-dimethylpyridin-3-ylamino)-5-[4-(4-fluorophenyl)piperidine-1-carbonyl]pyridine-2-sulfonamide], the inhibition at up to 1 µM (human CCR10) is reported as ≥ 50%.

In the case of NS(=O)(=O)c1ncc(C(=O)N2CCC(c3ccc(F)cc3)CC2)c(Nc2ccc(Cl)nc2Cl)c1Cl [Compound 327, 3-chloro-4-(2,6-dichloropyridin-3-ylamino)-5-[4-(4-fluorophenyl)piperidine-1-carbonyl]pyridine-2-sulfonamide], the inhibition at up to 1 µM (human CCR10) is reported as ≥ 50%.

With Cc1ccc(Nc2c(C(=O)N3CCC(c4ccc(F)cc4)CC3)cnc(S(N)(=O)=O)c2Cl)c(F)c1 [Compound 328, 3-chloro-4-(2-fluoro-4-methylphenylamino)-5-[4-(4-fluorophenyl)piperidine-1-carbonyl]pyridine-2-sulfonamide] the inhibition at up to 1 µM (human CCR10) was ≥ 50%.

For Cc1cc(S(C)(=O)=O)ccc1Nc1c(C(=O)N2CCC(c3ccc(F)cc3)CC2)cnc(S(N)(=O)=O)c1Cl [Compound 329, 3-chloro-5-[4-(4-fluorophenyl)piperidine-1-carbonyl]-4-[2-methyl-4-(methylsulfonyl)phenylamino]pyridine-2-sulfonamide], the inhibition at up to 1 µM (human CCR10) was ≥ 50%.

For NS(=O)(=O)c1ncc(C(=O)N2CC(c3ccc(F)cc3)C2)c(NC2(c3ccccc3)CC2)c1Cl [Compound 330, 3-chloro-5-[3-(4-fluorophenyl)azetidine-1-carbonyl]-4-(1-phenylcyclopropylamino)pyridine-2-sulfonamide], the inhibition at up to 1 µM (human CCR10) was ≥ 50%.

With Cc1ccccc1Nc1c(C(=O)N2CCC(c3ccc(F)cc3)CC2)cnc(S(N)(=O)=O)c1C [Compound 331, 5-[4-(4-fluorophenyl)piperidine-1-carbonyl]-3-methyl-4-(o-tolylamino)pyridine-2-sulfonamide] the inhibition at up to 1 µM (human CCR10) was ≥ 50%.
